Test system: intracerebral 9L gliomas
Assay: In vivo therapy of glioma using Photofrin-containing nanoparticles with laser (diffusion MRI, Kaplan-Meier survival)
Design: species or system rat
Conditions: 9L tumor rats, tail vein administration, FIG. 17
From the text: Rats harboring intracerebral 9L gliomas, were allowed to grow to approximately 50 microliters in size, as quantitated using multi-slice T2-weighted MRI. Rats were divided into the following groups: sham (untreated); laser exposure only; intravenous administered photofrin (no nanoparticles); photofrin-encapsulated nanoparticles; and photofrin-encapsulated nanoparticles with F3 targeting (n=5/group). Diffusion MRI scans were obtained prior to treatment and every 2-3 days following treatment. Treatment with laser administration consisted of 750 mW of laser light administered at 630 nm for 7.5 minutes of total exposure time. This was accomplished through the same 1 mm diameter burr hole which was initially made to inject the 9L tumor cells to initiate tumor growth. The depth of the cylindrical laser tip was adjusted, based upon the MRI scan data, to be at the base of the tumor mass in order to optimize light delivery to the overall tumor mass. Diffusion MRI scans were acquired in order to assess in real time, the effectiveness of treatment. Increased diffusion values within the tumor mass reflect areas of cell kill (necrosis) and the magnitude of the increase is proportional to the level of cell killing. As shown in the MRI scans in FIG. 15, control diffusion tumor values are on average at approximately 100 apparent diffusion coefficient units (ADC).

Photofrin
survival times (Kaplan-Meier): no significant differences in survival times
